This note sets out measurements from patent US20250114345A1, “COMPOUNDS AND COMPOSITIONS AS CBP/P300 DEGRADERS AND USES THEREOF” (Oncopia Therapeutics, Inc. d/b/a/ SK Life Science Labs, priority 2023, published 2025).

Where only a bound is given, the exact number is not on record here.

In one experiment the target is T1, CBP (Homo sapiens, UniProt Q92793).
T1 construct: host or cells: A549 CBP HiBit cells
Nature of the experiment: CBP degradation, HiBit technology in A549 CBP HiBit cells (24 h). Type of experiment: cell-based. The settings on record: 24 hrs post treatment. In short, it runs like this: (§1)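 Endogenously HiBiT-tagged A549 cells are plated, left overnight, then treated with a compound dilution series at 37 °C and 5% CO2. At the set time, lytic detection buffer is added and plates are shaken 10 min at room temperature before luminescence is measured to derive potency and Dmax.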
A general note: The HiBiT peptide binds its large partner to form an active luciferase.

The next experiment concerns the target T2, p300 (Homo sapiens, UniProt Q09472).
T2 construct: host or cells: A549 P300 HiBit cells
Nature of the experiment: P300 degradation, HiBit technology in A549 P300 HiBit cells (2 h). It counts as cell-based. Particulars: 2 hrs post treatment; for Dmax: A549, A549 P300 HiBit cells; for DC50: A549 P300 HiBit cells. In short, it runs like this: as §1

T2 sequence (Q09472 whole entry): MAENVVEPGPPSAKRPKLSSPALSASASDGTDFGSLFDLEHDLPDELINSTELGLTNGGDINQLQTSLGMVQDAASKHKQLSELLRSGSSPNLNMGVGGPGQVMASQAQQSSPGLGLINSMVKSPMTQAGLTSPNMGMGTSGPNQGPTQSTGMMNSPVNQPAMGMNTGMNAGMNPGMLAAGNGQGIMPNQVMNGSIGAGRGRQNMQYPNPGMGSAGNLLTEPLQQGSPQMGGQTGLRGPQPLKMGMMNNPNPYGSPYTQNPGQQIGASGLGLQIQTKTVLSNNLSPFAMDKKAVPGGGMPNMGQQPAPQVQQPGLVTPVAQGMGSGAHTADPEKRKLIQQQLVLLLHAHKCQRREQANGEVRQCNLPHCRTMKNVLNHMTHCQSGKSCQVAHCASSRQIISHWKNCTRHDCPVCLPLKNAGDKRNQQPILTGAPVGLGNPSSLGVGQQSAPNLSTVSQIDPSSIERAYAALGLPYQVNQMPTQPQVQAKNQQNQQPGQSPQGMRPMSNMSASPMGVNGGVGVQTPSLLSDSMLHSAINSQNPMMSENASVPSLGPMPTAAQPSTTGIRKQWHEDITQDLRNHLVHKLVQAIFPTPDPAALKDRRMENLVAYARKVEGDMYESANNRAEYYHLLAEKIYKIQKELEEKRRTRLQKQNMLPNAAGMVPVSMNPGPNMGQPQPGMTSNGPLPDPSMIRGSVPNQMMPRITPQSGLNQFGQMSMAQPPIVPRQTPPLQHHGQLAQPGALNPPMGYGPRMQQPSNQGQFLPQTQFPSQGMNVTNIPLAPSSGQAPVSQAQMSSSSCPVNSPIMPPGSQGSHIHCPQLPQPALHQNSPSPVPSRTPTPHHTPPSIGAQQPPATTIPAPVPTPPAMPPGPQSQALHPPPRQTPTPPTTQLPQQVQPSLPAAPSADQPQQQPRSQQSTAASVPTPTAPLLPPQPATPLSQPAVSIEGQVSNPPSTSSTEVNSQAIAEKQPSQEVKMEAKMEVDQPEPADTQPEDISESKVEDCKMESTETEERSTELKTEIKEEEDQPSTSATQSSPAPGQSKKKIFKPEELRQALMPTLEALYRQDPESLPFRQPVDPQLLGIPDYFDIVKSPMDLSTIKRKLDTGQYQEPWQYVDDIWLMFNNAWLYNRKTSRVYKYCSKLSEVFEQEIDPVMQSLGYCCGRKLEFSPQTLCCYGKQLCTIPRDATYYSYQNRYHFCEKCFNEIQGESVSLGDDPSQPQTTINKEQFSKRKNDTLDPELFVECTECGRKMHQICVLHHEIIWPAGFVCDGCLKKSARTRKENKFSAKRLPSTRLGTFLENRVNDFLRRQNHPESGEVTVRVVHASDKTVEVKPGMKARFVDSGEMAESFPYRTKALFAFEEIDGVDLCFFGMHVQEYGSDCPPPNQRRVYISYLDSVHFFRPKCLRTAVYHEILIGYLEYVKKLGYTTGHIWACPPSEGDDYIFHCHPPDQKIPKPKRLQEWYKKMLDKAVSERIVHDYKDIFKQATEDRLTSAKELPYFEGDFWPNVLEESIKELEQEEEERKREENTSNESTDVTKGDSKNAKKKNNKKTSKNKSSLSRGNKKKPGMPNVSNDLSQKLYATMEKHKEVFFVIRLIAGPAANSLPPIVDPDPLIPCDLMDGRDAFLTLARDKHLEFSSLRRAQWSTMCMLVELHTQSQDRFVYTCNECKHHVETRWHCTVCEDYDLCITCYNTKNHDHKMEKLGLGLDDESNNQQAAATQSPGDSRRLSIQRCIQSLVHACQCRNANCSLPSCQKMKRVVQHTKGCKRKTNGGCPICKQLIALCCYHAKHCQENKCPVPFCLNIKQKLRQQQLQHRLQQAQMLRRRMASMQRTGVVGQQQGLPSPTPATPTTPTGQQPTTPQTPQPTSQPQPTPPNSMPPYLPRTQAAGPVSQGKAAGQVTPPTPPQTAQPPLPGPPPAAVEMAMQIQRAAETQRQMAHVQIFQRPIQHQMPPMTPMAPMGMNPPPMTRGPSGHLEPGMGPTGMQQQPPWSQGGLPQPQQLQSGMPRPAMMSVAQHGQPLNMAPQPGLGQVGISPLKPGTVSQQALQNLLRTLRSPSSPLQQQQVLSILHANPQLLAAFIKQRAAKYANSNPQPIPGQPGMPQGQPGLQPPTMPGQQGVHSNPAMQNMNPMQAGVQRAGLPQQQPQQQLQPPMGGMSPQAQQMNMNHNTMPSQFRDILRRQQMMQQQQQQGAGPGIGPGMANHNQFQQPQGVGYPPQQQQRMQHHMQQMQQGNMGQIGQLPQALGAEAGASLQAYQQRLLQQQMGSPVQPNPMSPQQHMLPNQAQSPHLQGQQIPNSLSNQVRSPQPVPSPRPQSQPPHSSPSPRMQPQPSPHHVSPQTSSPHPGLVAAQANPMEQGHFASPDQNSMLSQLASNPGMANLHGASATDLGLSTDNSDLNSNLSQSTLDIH
T1 sequence (Q92793 whole entry): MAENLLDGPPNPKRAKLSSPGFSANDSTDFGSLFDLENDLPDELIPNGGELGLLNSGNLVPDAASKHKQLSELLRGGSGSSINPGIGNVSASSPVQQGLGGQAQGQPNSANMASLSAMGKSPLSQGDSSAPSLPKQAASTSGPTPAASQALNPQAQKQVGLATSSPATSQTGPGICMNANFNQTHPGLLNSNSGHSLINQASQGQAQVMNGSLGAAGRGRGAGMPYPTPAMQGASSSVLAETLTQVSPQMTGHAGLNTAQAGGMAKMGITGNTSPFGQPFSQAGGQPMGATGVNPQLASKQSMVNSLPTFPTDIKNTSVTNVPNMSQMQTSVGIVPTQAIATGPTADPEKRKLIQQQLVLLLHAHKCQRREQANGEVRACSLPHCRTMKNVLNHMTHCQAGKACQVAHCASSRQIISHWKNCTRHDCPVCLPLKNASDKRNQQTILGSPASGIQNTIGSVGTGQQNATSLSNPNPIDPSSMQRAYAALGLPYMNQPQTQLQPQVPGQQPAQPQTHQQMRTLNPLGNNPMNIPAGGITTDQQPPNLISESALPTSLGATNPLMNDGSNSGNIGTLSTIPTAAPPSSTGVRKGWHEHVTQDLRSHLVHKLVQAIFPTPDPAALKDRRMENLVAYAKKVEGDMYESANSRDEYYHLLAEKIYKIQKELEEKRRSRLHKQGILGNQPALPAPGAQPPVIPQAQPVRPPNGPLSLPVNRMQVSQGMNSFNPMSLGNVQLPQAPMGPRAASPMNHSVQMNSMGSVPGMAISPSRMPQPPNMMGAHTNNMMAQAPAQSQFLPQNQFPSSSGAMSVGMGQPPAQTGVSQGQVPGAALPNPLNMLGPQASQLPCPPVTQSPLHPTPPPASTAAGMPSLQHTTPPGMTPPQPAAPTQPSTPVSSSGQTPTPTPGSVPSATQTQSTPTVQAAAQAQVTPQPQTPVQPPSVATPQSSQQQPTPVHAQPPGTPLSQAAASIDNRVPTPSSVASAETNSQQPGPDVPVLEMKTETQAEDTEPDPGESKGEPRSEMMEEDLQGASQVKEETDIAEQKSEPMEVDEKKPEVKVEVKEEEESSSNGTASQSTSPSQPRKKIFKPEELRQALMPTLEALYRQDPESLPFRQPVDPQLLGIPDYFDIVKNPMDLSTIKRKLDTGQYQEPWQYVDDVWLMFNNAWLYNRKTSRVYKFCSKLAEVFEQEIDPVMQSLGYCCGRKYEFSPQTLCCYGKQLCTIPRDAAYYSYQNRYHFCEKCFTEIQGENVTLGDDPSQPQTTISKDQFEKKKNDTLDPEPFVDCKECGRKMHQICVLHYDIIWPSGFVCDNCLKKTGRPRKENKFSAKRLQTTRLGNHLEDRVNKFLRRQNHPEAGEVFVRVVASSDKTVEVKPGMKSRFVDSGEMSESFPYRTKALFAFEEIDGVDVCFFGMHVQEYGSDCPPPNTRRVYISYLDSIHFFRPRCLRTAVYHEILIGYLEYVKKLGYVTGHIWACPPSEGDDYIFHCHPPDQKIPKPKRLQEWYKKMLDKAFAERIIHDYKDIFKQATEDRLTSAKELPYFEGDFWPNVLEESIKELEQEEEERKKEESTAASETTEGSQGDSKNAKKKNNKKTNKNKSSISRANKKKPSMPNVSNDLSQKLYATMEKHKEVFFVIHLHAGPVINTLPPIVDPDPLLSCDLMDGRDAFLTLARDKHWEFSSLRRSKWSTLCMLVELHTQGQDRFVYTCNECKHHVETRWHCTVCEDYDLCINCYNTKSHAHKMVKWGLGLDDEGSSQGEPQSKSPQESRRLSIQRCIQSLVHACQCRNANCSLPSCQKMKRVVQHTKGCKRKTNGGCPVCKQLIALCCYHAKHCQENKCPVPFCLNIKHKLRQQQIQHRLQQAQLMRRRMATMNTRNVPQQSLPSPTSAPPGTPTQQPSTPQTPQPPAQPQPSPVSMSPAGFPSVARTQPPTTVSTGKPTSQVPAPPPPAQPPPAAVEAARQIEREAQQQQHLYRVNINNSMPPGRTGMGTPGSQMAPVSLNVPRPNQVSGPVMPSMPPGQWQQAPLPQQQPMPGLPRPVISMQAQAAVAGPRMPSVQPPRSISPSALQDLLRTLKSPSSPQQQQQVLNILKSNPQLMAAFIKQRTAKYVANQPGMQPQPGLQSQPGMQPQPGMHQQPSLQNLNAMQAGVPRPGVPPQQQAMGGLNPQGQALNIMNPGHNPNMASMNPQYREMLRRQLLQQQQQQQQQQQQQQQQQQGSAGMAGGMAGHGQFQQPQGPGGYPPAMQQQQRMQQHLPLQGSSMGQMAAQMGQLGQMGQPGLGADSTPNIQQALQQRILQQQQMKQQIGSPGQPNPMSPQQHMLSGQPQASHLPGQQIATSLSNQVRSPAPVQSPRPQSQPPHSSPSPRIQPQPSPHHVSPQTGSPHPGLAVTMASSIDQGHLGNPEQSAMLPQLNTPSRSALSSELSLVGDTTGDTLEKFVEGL

The term DC50 denotes the concentration giving 50% degradation. Broadly, the Dmax is the greatest extent of degradation seen. A low value points to shallow degradation. On CBP, `Cn1c(=O)n(C)c2c(N3C4COCC3C4)nc(-c3cccc4cc(-c5ccc(C(=O)NCC#Cc6ccc7occ(C8CCC(=O)NC8=O)c7c6)nc5)ncc34)cc21` (stereo not drawn) [Example A99, 5-(8-(4-(3-oxa-6-azabicyclo[3.1.1]heptan-6-yl)-1,3-dimethyl-2-oxo-2,3-dihydro-1H-imidazo[4,5-c]pyridin-6-yl)isoquinolin-3-yl)-N-(3-(3-(2,6-dioxo-piperidin-3-yl)benzofuran-5-yl)prop-2-yn-1-yl)picolinamide] registered a DC50 above 1000 nM and a Dmax below 20%. At p300, this compound registered a Dmax above 80% and a DC50 below 1 nM.
As for `Cc1cc(-c2ncc3c(n2)OCCN3c2ccc3c(c2)n(C)c(=O)n3C)cnc1C(=O)NCC#Cc1cc2c([C@@H]3CCC(=O)NC3=O)cccc2o1` [Example A175, (S)-5-(5-(1,3-dimethyl-2-oxo-2,3-dihydro-1H-benzo[d]imidazol-5-yl)-6,7-dihydro-5H-pyrimido[4,5-b] [1,4]oxazin-2-yl)-N-(3-(4-(2,6-dioxo-piperidin-3-yl)benzofuran-2-yl)prop-2-yn-1-yl)-3-methylpicolinamide], on CBP, the half-maximal degradation concentration (DC50) was above 1000 nM and the Dmax is below 20%. On p300, the Dmax is above 80% and the DC50 lay within 10 to 99 nM.
For `Cn1c(=O)n(C)c2c(N3CC4CCC(C3)O4)nc(-c3cccc4cc(-c5ccc(C(=O)NCC#Cc6ccc7occ(C89CC(C8)C(=O)NC9=O)c7c6)nc5)ncc34)cc21` [Example A194, 5-(8-(4-(8-oxa-3-azabicyclo[3.2.1]octan-3-yl)-1,3-dimethyl-2-oxo-2,3-dihydro-1H-imidazo[4,5-c]pyridin-6-yl)isoquinolin-3-yl)-N-(3-(3-(2,4-dioxo-3-azabicyclo[3.1.1]heptan-1-yl)benzofuran-5-yl)prop-2-yn-1-yl)picolinamide], on CBP, the DC50 was above 1000 nM and the Dmax was below 20%. At p300, this compound registered a Dmax above 80% and a DC50 of 1 to 9.9 nM.
`Cc1cc2c(N3CCCc4nc(-c5ccc(C(=O)NCC#Cc6cc7c(C8CCC(=O)NC8=O)cccc7o6)nc5)ncc43)cc(C3CCC3)cc2n(C)c1=O` (stereo not drawn) [Example B161, 5-(5-(7-cyclobutyl-1,3-dimethyl-2-oxo-1,2-dihydroquinolin-5-yl)-5,6,7,8-tetrahydropyrido [3,2-d]pyrimidin-2-yl)-N-(3-(4-(2,6-dioxo-piperidin-3-yl)benzofuran-2-yl)prop-2-yn-1-yl)picolinamide]: at CBP, the DC50 was above 1000 nM and the Dmax was below 20%. Further, at p300, the greatest degradation seen (Dmax) was above 80% and the DC50 was 1 to 9.9 nM.
At CBP, `CC(C)c1cc(-c2cccc3cc(-c4ccc(C(=O)NCC#Cc5oc6c(C7CCC(=O)NC7=O)cccc6c5F)nc4)ncc23)cc2c1n(C)c(=O)n2C` (stereo not drawn) [Example A191, N-(3-(7-(2,6-dioxo-piperidin-3-yl)-3-fluorobenzofuran-2-yl)prop-2-yn-1-yl)-5-(8-(7-isopropyl-1,3-dimethyl-2-oxo-2,3-dihydro-1H-benzo [d]imidazol-5-yl)isoquinolin-3-yl)picolinamide] yielded a DC50 above 1000 nM and a Dmax below 20%. At p300, the Dmax is above 80% and the DC50 was 10 to 99 nM.
Consider `CC(C)c1cc(N2CCOc3nc(-c4ccc(C(=O)NCC#Cc5ccc6occ(C7CCC(=O)NC7=O)c6c5)nc4)ncc32)cc2c1n(C)c(=O)n2C` (stereo not drawn) [Example A89, N-(3-(3-(2,6-dioxo-piperidin-3-yl)benzofuran-5-yl)prop-2-yn-1-yl)-5-(5-(7-isopropyl-1,3-dimethyl-2-oxo-2,3-dihydro-1H-benzo[d]imidazol-5-yl)-6,7-dihydro-5H-pyrimido [4,5-b][1,4]oxazin-2-yl)picolinamide], for which, on CBP, the DC50 was above 1000 nM and the Dmax is below 20%. At p300, the greatest degradation seen (Dmax) is above 80% and the DC50 is above 1000 nM.
For `Cn1c(=O)n(C)c2c(N3CC(O)C3)nc(-c3cccc4cc(-c5ccc(C(=O)NCC#Cc6ccc7occ(C8CCC(=O)NC8=O)c7c6)nc5)ncc34)cc21` (stereo not drawn) [Example A115, N-(3-(3-(2,6-dioxo-piperidin-3-yl)benzofuran-5-yl)prop-2-yn-1-yl)-5-(8-(4-(3-hydroxyazetidin-1-yl)-1,3-dimethyl-2-oxo-2,3-dihydro-1H-imidazo[4,5-c]pyridin-6-yl)isoquinolin-3-yl)picolinamide], the results for the DC50 at CBP and on p300 were above 1000 nM and below 1 nM, respectively. In addition, the figures for the Dmax on CBP and at p300 were below 20% and above 80%, respectively.
For `Cn1c(=O)n(C)c2c(N3CCOCC3)cc(N3CCCc4nc(-c5ccc(C(=O)NCC#Cc6ccc7occ(C8CCC(=O)NC8=O)c7c6)nc5)ncc43)cc21` (stereo not drawn) [Example A127, 5-(5-(1,3-dimethyl-7-morpholino-2-oxo-2,3-dihydro-1H-benzo [d]imidazol-5-yl)-5,6,7,8-tetrahydro-pyrido[3,2-d]pyrimidin-2-yl)-N-(3-(3-(2,6-dioxopiperidin-3-yl)benzofuran-5-yl)prop-2-yn-1-yl)picolinamide], in that order: above 1000 nM, below 1 nM, below 20% and above 80%.
For `CC(C)c1cc(-c2cccc3cc(-c4ccc(C(=O)NCC#Cc5ccc6[nH]nc(C7CCC(=O)NC7=O)c6c5)nc4)ncc23)cc2c1n(C)c(=O)n2C` (stereo not drawn) [Example A204, N-(3-(3-(2,6-dioxo-piperidin-3-yl)-1H-indazol-5-yl)prop-2-yn-1-yl)-5-(8-(7-isopropyl-1,3-dimethyl-2-oxo-2,3-dihydro-1H-benzo [d]imidazol-5-yl)isoquinolin-3-yl)picolinamide] the same measures were 1 to 9.9 nM, 1 to 9.9 nM, 60 to 79% and above 80%.
Take `Cc1cc2c(N3CCCc4nc(-c5ccc(C(=O)NCC#Cc6cc7c(C8CCC(=O)NC8=O)nccc7o6)nc5)ncc43)cccc2n(C)c1=O` (stereo not drawn) [Example B106, 5-(5-(1,3-dimethyl-2-oxo-1,2-dihydroquinolin-5-yl)-5,6,7,8-tetrahydropyrido[3,2-d]pyrimidin-2-yl)-N-(3-(4-(2,6-dioxopiperidin-3-yl)furo [3,2-c]pyridin-2-yl)prop-2-yn-1-yl) picolinamide]: at CBP, the DC50 fell in the range of 100 to 999 nM and the Dmax was below 20%. On p300, this compound came in with a Dmax above 80% and a DC50 below 1 nM.
In the case of `CC(C)c1cc(-c2cccc3cc(-c4ccc(C(=O)NCC#Cc5cc(OC6CCC(=O)NC6=O)nn5C)nc4)ncc23)cc2c1n(C)c(=O)n2C` (stereo not drawn) [Example A29, N-(3-(3-((2,6-Dioxopiperidin-3-yl)oxy)-1-methyl-1H-pyrazol-5-yl)prop-2-yn-1-yl)-5-(8-(7-isopropyl-1,3-dimethyl-2-oxo-2,3-dihydro-1H-benzo[d]imidazol-5-yl)isoquinolin-3-yl)picolinamide], at CBP, the half-maximal degradation concentration (DC50) is above 1000 nM and the Dmax is below 20%. At p300, this compound showed a Dmax above 80% and a DC50 of 1 to 9.9 nM.
On CBP, `CCN(c1cnc(-c2cnc(C(=O)NCC#Cc3ccc4occ(C5CCC(=O)NC5=O)c4c3)c(C)c2)nc1)c1cc(C2CCOCC2)c2c(c1)n(C)c(=O)n2C` (stereo not drawn) [Example A95, 5-(5-((1,3-dimethyl-2-oxo-7-(tetrahydro-2H-pyran-4-yl)-2,3-dihydro-1H-benzo [d]imidazol-5-yl)(ethyl)amino)pyrimidin-2-yl)-N-(3-(3-(2,6-dioxopiperidin-3-yl)benzofuran-5-yl)prop-2-yn-1-yl)-3-methylpicolinamide] showed a DC50 above 1000 nM and a maximal degradation (Dmax) below 20%. Also, on p300, the Dmax was above 80% and the DC50 lay within 1 to 9.9 nM.
On CBP, `Cn1c(=O)n(C)c2c(N3CC4(COC4)C3)nc(-c3cccc4cc(-c5ccc(C(=O)NCC#Cc6ccc7occ(C8CCC(=O)NC8=O)c7c6)nc5)ncc34)cc21` (stereo not drawn) [Example A136, 5-(8-(1,3-dimethyl-2-oxo-4-(2-oxa-6-azaspiro[3.3]heptan-6-yl)-2,3-dihydro-1H-imidazo[4,5-c]pyridin-6-yl)isoquinolin-3-yl)-N-(3-(3-(2,6-dioxopiperidin-3-yl)benzofuran-5-yl)prop-2-yn-1-yl)picolinamide] showed a DC50 above 1000 nM and a Dmax below 20%. At p300, this compound showed a Dmax above 80% and a 50% degradation concentration (DC50) of 1 to 9.9 nM.
For `Cc1cc2c(N3CCCc4nc(-c5ccc(C(=O)NCC#Cc6nc7cccc(C8CCC(=O)NC8=O)n7n6)nc5)ncc43)cc(C3CCOCC3)cc2n(C)c1=O` (stereo not drawn) [Example B156, 5-(5-(1,3-dimethyl-2-oxo-7-(tetrahydro-2H-pyran-4-yl)-1,2-dihydroquinolin-5-yl)-5,6,7,8-tetrahydropyrido[3,2-d]pyrimidin-2-yl)-N-(3-(5-(2,6-dioxopiperidin-3-yl)-[1,2,4]triazolo [1,5-a]pyridin-2-yl)prop-2-yn-1-yl) picolinamide], in that order: above 1000 nM, below 20%, 20 to 39% and 10 to 99 nM.
Regarding `Cc1cc(N2CCOc3nc(-c4ccc(C(=O)NCC#Cc5cc6c(C7CCC(=O)NC7=O)cccc6o5)nc4)ncc32)cc2c1n(C)c(=O)n2C` (stereo not drawn) [Example A199, N-(3-(4-(2,6-dioxo-piperidin-3-yl)benzofuran-2-yl)prop-2-yn-1-yl)-5-(5-(1,3,7-trimethyl-2-oxo-2,3-dihydro-1H-benzo[d]imidazol-5-yl)-6,7-dihydro-5H-pyrimido[4,5-b] [1,4]oxazin-2-yl)picolinamide], the DC50 at CBP is 100 to 999 nM; on p300 it was 1 to 9.9 nM. Moreover, the Dmax at CBP was below 20%; at p300, above 80%.
